Among the data in ChEMBL document CHEMBL3112534, “A click chemistry approach to pleuromutilin derivatives. Part 3: extended footprinting analysis and excellent MRSA inhibition for a derivative with an adenine phenyl side chain” (2014) are Activity and MIC values, retold here.

In brackets after ≈: the same amount, converted by molar mass. Activity calls are given as the source filed them. No cut-off for these calls is given here.

In assay [1] the test system is Escherichia coli. Kind of assay: Binding affinity to Escherichia coli MRE600 23S rRNA assessed as protection of U2585 at 50 uM by footprinting assay relative to control in presence of CMCT.
For assay [2], the system named is Escherichia coli. Kind of assay: Binding affinity to Escherichia coli MRE600 23S rRNA assessed as protection of U2585 at 5 uM by footprinting assay relative to control in presence of CMCT.
In assay [3] the test system is Escherichia coli. Kind of assay: Binding affinity to Escherichia coli MRE600 23S rRNA assessed as protection of U2506 at 50 uM by footprinting assay relative to control in presence of CMCT.
The test system of assay [4] is Escherichia coli. In words: Binding affinity to Escherichia coli MRE600 23S rRNA assessed as protection of U2506 at 5 uM by footprinting assay relative to control in presence of CMCT.
Assay [5] concerns Escherichia coli. In words: Antimicrobial activity against […] Escherichia coli AS19 after 20 hrs by two-fold broth dilution assay. The assay is classed as functional. The following applies: AS19, 20 h.
The subject of assay [6] is Staphylococcus aureus. In words: Antimicrobial activity against […] Staphylococcus aureus RN4220 after 20 hrs by two-fold broth dilution assay. The assay is classed as functional. The conditions noted are these: RN4220, 20 h.
Assay [7] deals with Staphylococcus aureus. In words: Antimicrobial activity against methicillin-resistant Staphylococcus aureus USA300 after 20 hrs by two-fold broth dilution assay. The assay is classed as functional. The following applies: USA300, 20 h.
Assay [8] relates to Escherichia coli. Kind of assay: Binding affinity to Escherichia coli MRE600 23S rRNA assessed as protection of A2062 at 25 uM by footprinting assay relative to control in presence of DMS.
The test system of assay [9] is Escherichia coli. Kind of assay: Binding affinity to Escherichia coli MRE600 23S rRNA assessed as protection of A2059 at 25 uM by footprinting assay relative to control in presence of DMS.

On to `C=C[C@]1(C)C[C@@H](OC(=O)CO)[C@]2(C)[C@H](C)CC[C@]3(CCC(=O)[C@@H]32)[C@@H](C)[C@@H]1O`, for which the Activity was 59% in the assay with Escherichia coli [1], 73% in the assay on Escherichia coli [2], 5% with Escherichia coli [3] and 15% in the assay on Escherichia coli [4].
On to `C=C[C@]1(C)C[C@@H](OC(=O)Cn2cc(/C=C/Cn3cnc4c(N)ncnc43)nn2)[C@]2(C)[C@H](C)CC[C@]3(CCC(=O)[C@H]32)[C@@H](C)[C@@H]1O`, for which the MIC was 2 µg/mL (≈ 3.32 µM) against Escherichia coli [5], 1 µg/mL (≈ 1.66 µM) against Staphylococcus aureus [6] and 1 µg/mL (≈ 1.66 µM) with Staphylococcus aureus [7].
`C=C[C@]1(C)C[C@@H](OC(=O)Cn2cc(CCCn3cnc4c(N)ncnc43)nn2)[C@]2(C)[C@H](C)CC[C@]3(CCC(=O)[C@H]32)[C@@H](C)[C@@H]1O`: the MIC in the assay with Escherichia coli [5], against Staphylococcus aureus [6] and against Staphylococcus aureus [7] was 2 µg/mL (≈ 3.31 µM) throughout.
Regarding `C=C[C@]1(C)C[C@@H](OC(=O)Cn2cc(-c3ccc(-n4cnc5c(N)ncnc54)cc3)nn2)[C@]2(C)[C@H](C)CC[C@]3(CCC(=O)[C@H]32)[C@@H](C)[C@@H]1O`, the MIC in the assay on Escherichia coli [5] is 4 µg/mL (≈ 6.26 µM); with Staphylococcus aureus [6] it was 0.5 µg/mL (≈ 0.783 µM); against Staphylococcus aureus [7], 0.5 µg/mL (≈ 0.783 µM). In addition, the outcome in the assay on Escherichia coli [8] and in the assay on Escherichia coli [9] was inactive.
As to `C=C[C@]1(C)C[C@@H](OC(=O)CSC(C)(C)CNC(=O)[C@H](N)C(C)C)[C@]2(C)[C@H](C)CC[C@]3(CCC(=O)[C@H]32)[C@@H](C)[C@@H]1O` [VALNEMULIN], the MIC with Escherichia coli [5] came out at 0.03 µg/mL (≈ 0.0531 µM); with Staphylococcus aureus [6], 0.03 µg/mL (≈ 0.0531 µM); against Staphylococcus aureus [7], 0.06 µg/mL (≈ 0.106 µM). The Activity was 12% in the assay with Escherichia coli [1], 10% in the assay with Escherichia coli [2], 2% in the assay on Escherichia coli [3] and 2% with Escherichia coli [4].
For the compound `C=C[C@]1(C)C[C@@H](OC(=O)Cn2cc(COCCn3cnc4c(N)ncnc43)nn2)[C@]2(C)[C@H](C)CC[C@]3(CCC(=O)[C@H]32)[C@@H](C)[C@@H]1O`, the MIC in the assay on Escherichia coli [5], in the assay on Staphylococcus aureus [6] and against Staphylococcus aureus [7] was greater than 4 µg/mL in each case. Also, the Activity came to 14% with Escherichia coli [1], 27% in the assay on Escherichia coli [2], 4% in the assay with Escherichia coli [3] and 9% with Escherichia coli [4].
Regarding `C=C[C@]1(C)C[C@@H](OC(=O)Cn2cc(CN(CC)CC)nn2)[C@]2(C)[C@H](C)CC[C@]3(CCC(=O)[C@H]32)[C@@H](C)[C@@H]1O`, the figures for the MIC against Escherichia coli [5], against Staphylococcus aureus [6] and in the assay with Staphylococcus aureus [7] were no less than 4 µg/mL, greater than 4 µg/mL and greater than 4 µg/mL, respectively. Further, the Activity with Escherichia coli [1] is 28%; in the assay with Escherichia coli [2] it was 51%; in the assay on Escherichia coli [3], 8%; with Escherichia coli [4], 27%.
Regarding `C=C[C@]1(C)C[C@@H](OC(=O)CSCCN(CC)CC)[C@]2(C)[C@H](C)CC[C@]3(CCC(=O)[C@H]32)[C@@H](C)[C@@H]1O` [TIAMULIN], the values for the MIC against Escherichia coli [5], in the assay on Staphylococcus aureus [6] and against Staphylococcus aureus [7] were 0.25 µg/mL (≈ 0.506 µM), 0.5 µg/mL (≈ 1.01 µM) and 1 µg/mL (≈ 2.03 µM), respectively. Besides, the Activity turned out to be 40% in the assay on Escherichia coli [1], 41% in the assay on Escherichia coli [2], 3% in the assay on Escherichia coli [3] and 5% in the assay with Escherichia coli [4].
For `C=C[C@]1(C)C[C@@H](OC(=O)Cn2cc(-c3cccc(-n4cnc5c(N)ncnc54)c3)nn2)[C@]2(C)[C@H](C)CC[C@]3(CCC(=O)[C@H]32)[C@@H](C)[C@@H]1O`, the MIC was found to be 0.5 µg/mL (≈ 0.783 µM) in the assay with Escherichia coli [5], 0.06 µg/mL (≈ 0.0939 µM) against Staphylococcus aureus [6] and 0.06 µg/mL (≈ 0.0939 µM) against Staphylococcus aureus [7].
Regarding `C=C[C@]1(C)C[C@@H](OC(=O)Cn2nncc2CCCn2cnc3c(N)ncnc32)[C@]2(C)[C@H](C)CC[C@]3(CCC(=O)[C@H]32)[C@@H](C)[C@@H]1O`, the MIC in the assay with Escherichia coli [5] was 4 µg/mL (≈ 6.61 µM); in the assay on Staphylococcus aureus [6], 4 µg/mL (≈ 6.61 µM); against Staphylococcus aureus [7] it was greater than 4 µg/mL. Besides, the result in the assay on Escherichia coli [9] was inactive.
